Here are results for two compounds from US20220218838A1, “ADC FOR A TREATMENT CONCOMITANT WITH OR SUBSEQUENT TO DOCETAXEL” (PIERRE FABRE MEDICAMENT, priority 2019, published 2022).

One experiment relates to MCF-7 tumour. In words: In-vivo activity in a breast cancer model: nude mice grafted with MCF-7 cells, after onset of docetaxel resistance. The following applies: docetaxel 9 mg/kg intravenously, 5 injections, mice bearing MCF-7 tumours.
The next experiment concerns the target IGF-IR (Homo sapiens, UniProt P08069). As to conditions: read-out: Kd of binding to IGF-IR; cited from earlier work.

Chain of IGF-IR (P08069 31-736 limits assumed): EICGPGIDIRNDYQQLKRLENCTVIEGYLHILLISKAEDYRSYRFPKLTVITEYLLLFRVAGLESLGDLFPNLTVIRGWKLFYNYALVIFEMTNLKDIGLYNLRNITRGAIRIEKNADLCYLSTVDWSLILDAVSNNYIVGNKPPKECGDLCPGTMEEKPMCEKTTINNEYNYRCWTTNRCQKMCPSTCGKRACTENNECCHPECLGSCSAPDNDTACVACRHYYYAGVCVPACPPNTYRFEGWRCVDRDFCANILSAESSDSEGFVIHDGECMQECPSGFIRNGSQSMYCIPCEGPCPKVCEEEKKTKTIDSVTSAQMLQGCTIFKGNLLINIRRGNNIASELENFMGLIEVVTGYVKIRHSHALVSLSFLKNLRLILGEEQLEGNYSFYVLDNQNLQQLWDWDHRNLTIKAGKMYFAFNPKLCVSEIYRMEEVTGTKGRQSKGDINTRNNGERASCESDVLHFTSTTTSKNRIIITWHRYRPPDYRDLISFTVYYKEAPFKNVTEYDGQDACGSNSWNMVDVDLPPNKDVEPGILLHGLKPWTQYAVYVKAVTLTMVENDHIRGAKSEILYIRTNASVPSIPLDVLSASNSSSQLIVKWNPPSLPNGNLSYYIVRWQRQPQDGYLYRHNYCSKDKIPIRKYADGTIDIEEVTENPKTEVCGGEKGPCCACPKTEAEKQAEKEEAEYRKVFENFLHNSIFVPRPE
Chain of IGF-IR (P08069 741-1367 partner limits assumed): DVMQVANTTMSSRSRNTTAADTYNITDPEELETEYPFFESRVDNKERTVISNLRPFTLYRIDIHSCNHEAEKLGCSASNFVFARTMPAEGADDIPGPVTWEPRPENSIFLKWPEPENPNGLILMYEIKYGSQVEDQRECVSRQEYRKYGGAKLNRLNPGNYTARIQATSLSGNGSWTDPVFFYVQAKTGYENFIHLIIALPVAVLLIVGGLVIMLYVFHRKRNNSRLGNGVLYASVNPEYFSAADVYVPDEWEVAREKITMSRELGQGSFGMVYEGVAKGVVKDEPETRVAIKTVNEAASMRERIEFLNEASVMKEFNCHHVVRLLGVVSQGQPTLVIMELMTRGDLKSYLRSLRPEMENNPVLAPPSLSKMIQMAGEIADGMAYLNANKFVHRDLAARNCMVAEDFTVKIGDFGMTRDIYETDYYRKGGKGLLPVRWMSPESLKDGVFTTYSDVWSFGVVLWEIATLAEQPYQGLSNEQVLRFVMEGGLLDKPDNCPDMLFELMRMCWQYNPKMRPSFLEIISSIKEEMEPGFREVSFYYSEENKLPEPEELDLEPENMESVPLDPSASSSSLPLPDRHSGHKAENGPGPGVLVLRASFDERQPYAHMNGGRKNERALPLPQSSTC
Protocol for MCF-7 tumour: Determination of in-vivo activity: In-vivo activity is tested in a breast cancer model: 7-week old nude female mice (Charles River Laboratories, n=15) were subcutaneously grafted with 5×10^6 MCF-7 cells 1 day after subcutaneous implantation of 0.72 mg of granules releasing 17β-estradiol (Innovative Research of America) for 60 days.
The mice are randomised, and treatment is initiated when the tumours reach a size of approximately 150 mm^3. The tumour volume (length×width×height×0.52) is measured at least twice a week and the therapeutic response is defined using solid tumour response criteria (RECIST).
Mice bearing MCF-7 tumours are injected intravenously with docetaxel, 9 mg/kg twice a week for a total of 5 injections.
The percentage of the regression values is calculated using the following formula:
where T=the tumour volume in the treated group, ΔT=the tumour volume in the treated group on the day of the study minus the tumour volume in the treated group on the initial day of administration, and Tinitial=the tumour volume in the treated group on the initial day of the administration The disease is considered to be progressing when the tumour size increases by >20%. Partial regression (PR) is defined as a reduction in tumour size >30%. […]

Turning to `CC(=O)O[C@@]12CO[C@@H]1C[C@H](O)[C@@]1(C)C(=O)[C@H](O)C3=C(C)[C@@H](OC(=O)[C@H](O)[C@@H](NC(=O)OC(C)(C)C)c4ccccc4)C[C@@](O)([C@@H](OC(=O)c4ccccc4)[C@H]21)C3(C)C` [docetaxel], the “time after which the tumours became resistant to docetaxel and relapsed” value with MCF-7 tumour stood at 70 days. Turning to IGF2: natural ligand bound by IGF-IR, the Kd with IGF-IR was roughly 1 nM.
